From patent US20190111158A1, “INJECTION COMPOSITION FOR LABELING LESION” (NATIONAL CANCER CENTER, priority 2016, published 2019)

Assays:
[1] = near-infrared fluorescence signal intensity of ICG-MAA complexes at various ICG/MAA mixing ratios; assay type: physicochemical; conditions: for near-infrared fluorescence signal intensity: MAA 0 mg/mL
[2] = cited from earlier work

- near-infrared fluorescence signal intensity ([1]; ICG 1.3 (μN)): 18
- near-infrared fluorescence signal intensity ([1]; ICG 3.9 (μN)): 120
- near-infrared fluorescence signal intensity ([1]; ICG 6.5 (μN)): 212
- near-infrared fluorescence signal intensity ([1]; ICG 9.0 (μN)): 289
- near-infrared fluorescence signal intensity ([1]; ICG 12.9 (μN)): 363
- near-infrared fluorescence signal intensity ([1]; ICG 25.8 (μN)): 466
- near-infrared fluorescence signal intensity ([1]; ICG 38.7 (μN)): 425
- near-infrared fluorescence signal intensity ([1]; ICG 51.6 (μN)): 399
- near-infrared fluorescence signal intensity ([1]; ICG 64.5 (μN)): 374
- near-infrared fluorescence signal intensity ([1]; ICG 77.4 (μN)): 332
- near-infrared fluorescence signal intensity ([1]; ICG 103 (μN)): 289
- near-infrared fluorescence signal intensity ([1]; ICG 258 (μN)): 139
- near-infrared fluorescence signal intensity ([1]; ICG 516 (μN)): 71
- near-infrared fluorescence signal intensity ([1]; ICG 774 (μN)): 39
- near-infrared fluorescence signal intensity ([1]; ICG 1032 (μN)): 30
- ICG concentration with the highest value of near-infrared fluorescence signal intensity ([1]; MAA was not treated): 25.8 µM
SMILES: CC1(C)C(/C=C/C=C/C=C/C=C2\N(CCCCS(=O)(=O)O)c3ccc4ccccc4c3C2(C)C)=[N+](CCCCS(=O)(=O)[O-])c2ccc3ccccc3c21 [ICG, indocyanine green]
- clinical safety ([2]; 18 breast cancer patients (T. Kitai, et al., Breast Cancer, 12:211-215, 2005)): safe clinical use
- elimination after injection into the human body ([2]; human body): decomposed and disappears or is excreted in the urine or feces within an hour
